# In patent US10011631B2, “Stapled helical peptides and methods of synthesis” (The University of Hong Kong, priority 2015, dated 2018):
# Biological target: MAGUK GK domain
# Test: ITC binding to the MAGUK GK domain
# Settings: from ITC studies
substance,measurement,value
Ala-Arg-Arg-S5-Glu-Tyr-Leu-S5-Ala-Ile-Gln [compound 1],binding affinity with the GK domain,no binding affinity
